Laboratory results taken from US20110319424A1, “NAPHTHYRIDIN-2(1H) -ONE COMPOUNDS USEFUL AS ANTIBACTERIALS” (priority 2008, published 2011).
Values after ≈ are worked out from the molar mass of the structure shown.

Experiments:
Type in all cases: cell-based
[1] = system: Mycobacterium tuberculosis H37Rv; assay: Mycobacterium tuberculosis H37Rv inhibition assay (MIC, resazurin fluorescence); conditions: ATCC 25618 / H37Rv, 144 h, H37Rv strain (ATCC25618), Middlebrook 7H9, six days at 37° C. then resazurin 48 hours
[2] = General antimicrobial activity assay (whole-cell, CLSI broth microdilution, MIC); conditions: against a strain of at least one of the organisms listed; broth microdilution, 0.016 to 64 μg/mL
Experimental: (§1) General Antimicrobial Activity Assay
(§2) Whole-cell antimicrobial activity was determined by broth microdilution using the Clinical and Laboratory Standards Institute (CLSI) recommended procedure, Document M7-A7, “Methods for Dilution Susceptibility Tests for Bacteria that Grow Aerobically”. The compounds were tested in serial two-fold dilutions ranging from 0.016 to 64 μg/mL.
(§3) Compounds were evaluated against gram-positive organisms, selected from i) Staphylococcus aureus, ii) Streptococcus pneumoniae, and iii) Enterococcus faecalis. Two compounds were additionally evaluated against Streptococcus pyogenes, and Enterococcus faecium.
(§4) In addition, compounds were evaluated against gram-negative organisms selected from iv) Haemophilus influenzae, v) Moraxella catarrhalis and vi) Escherichia coll. Two compounds were additionally evaluated against Pseudomonas aeruginosa, Proteus mirabilis, Enterobacter cloacae, Enterobacter aerogenes, Klebsiella pneumoniae and Stenotrophomonas maltophilia.
(§5) The minimum inhibitory concentration (MIC) was determined as the lowest concentration of compound that inhibited visible growth. A mirror reader was used to assist in determining the MIC endpoint.

[3] = system: gram-positive organisms i) Staphylococcus aureus, ii) Streptococcus pneumoniae, iii) Enterococcus faecalis and gram-negative organisms iv) Haemophilus …; assay: as above; conditions: organisms i)-vi) of the antimicrobial activity assay
Experimental: as §1, §2, §3, §4, §5

Compound	MIC [1] [µg/mL]	MIC [2] [µg/mL]	activity against organisms i)-vi) [3]
O=c1ccc2ncc(F)cc2n1CCN1CCC(NCc2ccc(F)cc2)CC1 [Example 14, 7-Fluoro-1-[2-(4-{[(4-fluorophenyl)methyl]amino}-1-piperidinyl)ethyl]-1,5-naphthyridin-2(1H)-one]	≤ 2.4	4 (≈ 10 µM)	
O=c1ccc2ncccc2n1CCN1CCC(NCc2cccc(Cl)c2)CC1 [Example 57, 1-[2-(4-{[(3-chlorophenyl)methyl]amino}-1-piperidinyl)ethyl]-1,5-naphthyridin-2(1H)-one]	≤ 2.4	4 (≈ 10.1 µM)	
O=c1ccc2ncccc2n1CCN1CCC(NCc2cc(Cl)cc(Cl)c2)CC1 [Example 58, 1-[2-(4-{[(3,5-dichlorophenyl)methyl]amino}-1-piperidinyl)ethyl]-1,5-naphthyridin-2(1H)-one]			no activity
O=c1ccc2ncc(F)cc2n1CCN1CCC(NCc2nc(Br)cs2)CC1 [Example 60, 1-[2-(4-{[(4-bromo-1,3-thiazol-2-yl)methyl]amino}-1-piperidinyl)ethyl]-7-fluoro-1,5-naphthyridin-2(1H)-one]		32 (≈ 68.6 µM)	
Cc1ncc(CNC2CCN(CCn3c(=O)ccc4ncc(F)cc43)CC2)[nH]1.O=C(O)C(F)(F)F [Example 119, 7-fluoro-1-[2-(4-{[(2-methyl-1H-imidazol-4-yl)methyl]amino}-1-piperidinyl)ethyl]-1,5-naphthyridin-2(1H)-one trifluoroacetate]		> 64	
Cc1ncc(CN[C@H]2CCN(CCn3c(=O)ccc4ncc(F)cc43)C[C@H]2O)cc1F [Example 128, 7-fluoro-1-[2-((3R,4S)-4-{[(5-fluoro-6-methyl-3-pyridinyl)methyl]amino}-3-hydroxy-1-piperidinyl)ethyl]-1,5-naphthyridin-2(1H)-one]	≤ 2.4	32 (≈ 74.5 µM)	
